Data published in US20250346592A1 (Celgene Corporation, priority 2022, published 2025).

Experiments:
hPAD4 enzyme [1] = biological target: T1, hPAD4 enzyme (Homo sapiens (Human), UniProt Q9UM07); assay: RFMS2 assay (RapidFire mass spectrometry, TSTGGRQGSHH peptide substrate); format: biochemical; conditions: 35 nM recombinant human PAD4, 500 μM TSTGGRQGSHH peptide, 30 minutes at room temperature; read-out: RFMS 2 IC50
Procedure, shortened: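 IC50 derived from RapidFire LC-MS/MS (positive ESI MRM) of substrate versus product after a 30 min room-temperature reaction stopped with 10% formic acid. Reaction contained 35 nM human PAD4, 500 μM peptide, 2 mM CaCl2, 5 mM DTT at pH 7.4, and compounds diluted 3-fold from 20 μM.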

hPAD4 enzyme [2] = biological target: T1, hPAD4 enzyme; assay: RFMS1 assay (RapidFire mass spectrometry, BAEE substrate); format: biochemical; conditions: 5 nM hPAD4, 250 μM BAEE, 30 min preincubation at 37° C., 90 min reaction; read-out: RFMS 1 IC50
Procedure, shortened: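 hPAD4 (5 nM) preincubated 30 min at 37° C. with compound, then 250 μM BAEE for 90 min at 37° C. in pH 7.5 HEPES buffer with 50 μM calcium, 1 mM DTT, 5 μM TPEN. TCA quench, phenyl glyoxal derivatisation; citrulline product measured by RapidFire MS, normalised to internal standard; IC50 values.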

T1 sequence (Q9UM07 whole entry): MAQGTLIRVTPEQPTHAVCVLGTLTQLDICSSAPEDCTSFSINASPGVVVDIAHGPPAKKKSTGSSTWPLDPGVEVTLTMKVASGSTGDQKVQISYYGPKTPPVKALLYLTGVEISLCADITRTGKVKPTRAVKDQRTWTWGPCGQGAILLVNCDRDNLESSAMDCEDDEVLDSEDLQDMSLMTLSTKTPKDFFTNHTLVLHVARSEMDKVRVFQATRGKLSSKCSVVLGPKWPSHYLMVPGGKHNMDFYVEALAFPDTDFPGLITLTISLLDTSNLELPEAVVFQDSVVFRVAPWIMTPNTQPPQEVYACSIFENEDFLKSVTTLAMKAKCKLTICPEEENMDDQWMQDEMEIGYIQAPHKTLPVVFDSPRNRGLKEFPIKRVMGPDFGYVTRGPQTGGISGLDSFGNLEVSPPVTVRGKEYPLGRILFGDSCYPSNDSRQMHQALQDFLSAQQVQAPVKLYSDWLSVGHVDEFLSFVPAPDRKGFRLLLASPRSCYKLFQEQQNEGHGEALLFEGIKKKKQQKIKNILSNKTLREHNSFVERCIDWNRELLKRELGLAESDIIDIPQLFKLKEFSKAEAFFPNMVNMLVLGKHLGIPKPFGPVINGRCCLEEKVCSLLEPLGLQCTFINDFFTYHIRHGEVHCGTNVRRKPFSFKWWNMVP

| IC50 (hPAD4 enzyme [1]) | IC50 (hPAD4 enzyme [2]) | Compound |
| --- | --- | --- |
| 0.101 to 0.5 µM | ≤ 0.01 µM | Cn1c(-c2cc3cccc(OCCn4cncn4)c3n2CC2CC2)nc2cc3c(cc21)CCN(C[C@H](N)CF)C3=O [Example 150, (S)-2-(7-(2-(1H-1,2,4-triazol-1-yl)ethoxy)-1-(cyclopropylmethyl)-1H-indol-2-yl)-6-(2-amino-3-fluoropropyl)-1-methyl-1,6,7,8-tetrahydro-5H-imidazo[4,5-g]isoquinolin-5-one] |
| 0.101 to 0.5 µM | 0.011 to 0.1 µM | Cc1nccn1CCOc1cccc2cc(-c3nc4cc5c(cc4n3C)CCN(C[C@H](N)CF)C5=O)n(CC3CC3)c12 [Example 165, (S)-6-(2-amino-3-fluoropropyl)-2-(1-(cyclopropyl-methyl)-7-(2-(2-methyl-1H-imidazol-1-yl)ethoxy)-1H-indol-2-yl)-1-methyl-1,6,7,8-tetrahydro-5H-imidazo [4,5-g]isoquinolin-5-one] |
| 0.101 to 0.5 µM | 0.011 to 0.1 µM | Cn1cncc1CCOc1cccc2cc(-c3nc4cc5c(cc4n3C)CCN(C[C@H](N)CF)C5=O)n(CC3CC3)c12 [Example 169, (S)-6-(2-amino-3-fluoropropyl)-2-(1-(cyclopropyl-methyl)-7-(2-(1-methyl-1H-imidazol-5-yl)ethoxy)-1H-indol-2-yl)-1-methyl-1,6,7,8-tetrahydro-5H-imidazo [4,5-g]isoquinolin-5-one] |
| 0.011 to 0.1 µM | 0.011 to 0.1 µM | Cn1c(-c2cc3cccc(OCc4ccn[nH]4)c3n2CC2CC2)nc2cc3c(cc21)CCN(C[C@H](N)CF)C3=O [Example 174, (S)-2-(7-((1H-pyrazol-5-yl)methoxy)-1-(cyclopropyl-methyl)-1H-indol-2-yl)-6-(2-amino-3-fluoropropyl)-1-methyl-1,6,7,8-tetrahydro-5H-imidazo[4,5-g] isoquinolin-5-one] |
| 0.011 to 0.1 µM | ≤ 0.01 µM | Cn1c(-c2cc3cccc(OCCn4ccnn4)c3n2CC2CC2)nc2cc3c(cc21)CCN(C[C@H](N)CF)C3=O [Example 181, (S)-2-(7-(2-(1H-1,2,3-triazol-1-yl)ethoxy)-1-(cyclopropylmethyl)-1H-indol-2-yl)-6-(2-amino-3-fluoropropyl)-1-methyl-1,6,7,8-tetrahydro-5H-imidazo[4,5-g]isoquinolin-5-one] |
| 0.101 to 0.5 µM | 0.011 to 0.1 µM | CN1CC(COc2cccc3cc(-c4nc5cc6c(cc5n4C)CCN(C[C@H](N)CF)C6=O)n(CC4CC4)c23)CC1=O (stereo partly drawn) [Example 184, 6-((S)-2-amino-3-fluoropropyl)-2-(1-(cyclopropylmethyl)-7-((1-methyl-5-oxopyrrolidin-3-yl)methoxy)-1H-indol-2-yl)-1-methyl-1,6,7,8-tetrahydro-5H-imidazo[4,5-g]isoquinolin-5-one] |
| 0.011 to 0.1 µM | ≤ 0.01 µM | Cn1c(-c2cc3cccc(OCCn4cnnn4)c3n2CC2CC2)nc2cc3c(cc21)CCN(C[C@H](N)CF)C3=O [Example 186, (S)-2-(7-(2-(1H-tetrazol-1-yl)ethoxy)-1-(cyclopropylmethyl)-1H-indol-2-yl)-6-(2-amino-3-fluoropropyl)-1-methyl-1,6,7,8-tetrahydro-5H-imidazo[4,5-g]isoquinolin-5-one] |
| 0.011 to 0.1 µM | ≤ 0.01 µM | Cn1c(-c2cc3cccc(OC[C@@H]4CNC(=O)C4)c3n2CC2CC2)nc2cc3c(cc21)CCN(C[C@H](N)CF)C3=O [Example 190, 6-((S)-2-amino-3-fluoropropyl)-2-(1-(cyclopropylmethyl)-7-(((S)-5-oxopyrrolidin-3-yl)methoxy)-1H-indol-2-yl)-1-methyl-1,6,7,8-tetrahydro-5H-imidazo[4,5-g]isoquinolin-5-one] |
| 0.011 to 0.1 µM | ≤ 0.01 µM | Cn1c(-c2cc3cccc(OCCc4ccno4)c3n2CC2CC2)nc2cc3c(cc21)CCN(C[C@H](N)CF)C3=O [Example 195, (S)-6-(2-amino-3-fluoropropyl)-2-(1-(cyclopropylmethyl)-7-(2-(isoxazol-5-yl)ethoxy)-1H-indol-2-yl)-1-methyl-1,6,7,8-tetrahydro-5H-imidazo[4,5-g]isoquinolin-5-one] |
| 0.011 to 0.1 µM | ≤ 0.01 µM | Cn1c(-c2cc3cccc(OCCn4ccnc4)c3n2CC2CC2)nc2cc3c(cc21)CCN(C[C@H](N)CF)C3=O [Example 198, (S)-2-(7-(2-(1H-imidazol-1-yl)ethoxy)-1-(cyclopropylmethyl)-1H-indol-2-yl)-6-(2-amino-3-fluoropropyl)-1-methyl-1,6,7,8-tetrahydro-5H-imidazo[4,5-g]isoquinolin-5-one] |
| 0.011 to 0.1 µM | ≤ 0.01 µM | Cn1c(-c2cc3cccc(OCCc4c[nH]nn4)c3n2CC2CC2)nc2cc3c(cc21)CCN(C[C@H](N)CF)C3=O [Example 199, (S)-2-(7-(2-(1H-1,2,3-triazol-4-yl)ethoxy)-1-(cyclopropyl-methyl)-1H-indol-2-yl)-6-(2-amino-3-fluoropropyl)-1-methyl-1,6,7,8-tetrahydro-5H-imidazo[4,5-g]isoquinolin-5-one] |
| 0.101 to 0.5 µM | ≤ 0.01 µM | COC(=O)N(C)CCOc1cccc2cc(-c3nc4cc5c(cc4n3C)CCN(C[C@H](N)CF)C5=O)n(CC3CC3)c12 [Example 201, methyl (S)-(2-((2-(6-(2-amino-3-fluoropropyl)-1-methyl-5-oxo-5,6,7,8-tetrahydro-1H-imidazo[4,5-g]isoquinolin-2-yl)-1-(cyclopropylmethyl)-1H-indol-7-yl)oxy)ethyl)(methyl) carbamate] |
| 0.011 to 0.1 µM | ≤ 0.01 µM | Cn1c(-c2cc3cccc(OCCc4cnoc4)c3n2CC2CC2)nc2cc3c(cc21)CCN(C[C@H](N)CF)C3=O [Example 204, (S)-6-(2-amino-3-fluoropropyl)-2-(1-(cyclopropylmethyl)-7-(2-(isoxazol-4-yl)ethoxy)-1H-indol-2-yl)-1-methyl-1,6,7,8-tetrahydro-5H-imidazo[4,5-g]isoquinolin-5-one] |
| 0.101 to 0.5 µM | 0.011 to 0.1 µM | Cn1c(-c2cc3cccc(OCCO)c3n2CC2CC2)nc2cc3c(cc21)CCN(C[C@H](N)CF)C3=O [Example 205, (S)-6-(2-amino-3-fluoropropyl)-2-(1-(cyclopropylmethyl)-7-(2-hydroxyethoxy)-1H-indol-2-yl)-1-methyl-1,6,7,8-tetrahydro-5H-imidazo[4,5-g]isoquinolin-5-one] |
| 0.011 to 0.1 µM | ≤ 0.01 µM | Cn1c(-c2cc3cccc(OC[C@@H]4CNC(=O)O4)c3n2CC2CC2)nc2cc3c(cc21)CCN(C[C@H](N)CF)C3=O [Example 206, (S)-5-(((2-(6-((S)-2-amino-3-fluoropropyl)-1-methyl-5-oxo-5,6,7,8-tetrahydro-1H-imidazo[4,5-g]isoquinolin-2-yl)-1-(cyclopropylmethyl)-1H-indol-7-yl)oxy)methyl)oxazolidin-2-one] |
| 0.101 to 0.5 µM | 0.011 to 0.1 µM | COC(=O)NCCOc1cccc2cc(-c3nc4cc5c(cc4n3C)CCN(C[C@H](N)CF)C5=O)n(CC3CC3)c12 [Example 207, methyl (S)-(2-((2-(6-(2-amino-3-fluoropropyl)-1-methyl-5-oxo-5,6,7,8-tetrahydro-1H-imidazo[4,5-g]isoquinolin-2-yl)-1-(cyclopropylmethyl)-1H-indol-7-yl)oxy)ethyl)carbamate] |
| 0.101 to 0.5 µM | 0.011 to 0.1 µM | COC(=O)N[C@@H](C)COc1cccc2cc(-c3nc4cc5c(cc4n3C)CCN(C[C@H](N)CF)C5=O)n(CC3CC3)c12 [Example 208, methyl ((S)-1-((2-(6-((S)-2-amino-3-fluoropropyl)-1-methyl-5-oxo-5,6,7,8-tetrahydro-1H-imidazo[4,5-g]isoquinolin-2-yl)-1-(cyclopropylmethyl)-1H-indol-7-yl)oxy)propan-2-yl)carbamate] |
| 0.011 to 0.1 µM | 0.011 to 0.1 µM | Cn1c(-c2cc3cccc(OCCn4cnnc4)c3n2CC2CC2)nc2cc3c(cc21)CCN(C[C@H](N)CF)C3=O [Example 210, (S)-2-(7-(2-(4H-1,2,4-triazol-4-yl)ethoxy)-1-(cyclopropyl-methyl)-1H-indol-2-yl)-6-(2-amino-3-fluoropropyl)-1-methyl-1,6,7,8-tetrahydro-5H-imidazo[4,5-g]isoquinolin-5-one] |
| 0.011 to 0.1 µM | ≤ 0.01 µM | C[C@@H](COc1cccc2cc(-c3nc4cc5c(cc4n3C)CCN(C[C@H](N)CF)C5=O)n(CC3CC3)c12)n1ccnc1 [Example 212, 2-(7-((S)-2-(1H-imidazol-1-yl)propoxy)-1-(cyclopropylmethyl)-1H-indol-2-yl)-6-((S)-2-amino-3-fluoropropyl)-1-methyl-1,6,7,8-tetrahydro-5H-imidazo[4,5-g]isoquinolin-5-one] |
| 0.101 to 0.5 µM | ≤ 0.01 µM | C[C@H](COc1cccc2cc(-c3nc4cc5c(cc4n3C)CCN(C[C@H](N)CF)C5=O)n(CC3CC3)c12)n1ccnc1 [Example 213, 2-(7-((R)-2-(1H-imidazol-1-yl)propoxy)-1-(cyclopropylmethyl)-1H-indol-2-yl)-6-((S)-2-amino-3-fluoropropyl)-1-methyl-1,6,7,8-tetrahydro-5H-imidazo[4,5-g]isoquinolin-5-one] |
| 0.101 to 0.5 µM | 0.011 to 0.1 µM | C[C@@H](Cn1ccnc1)Oc1cccc2cc(-c3nc4cc5c(cc4n3C)CCN(C[C@H](N)CF)C5=O)n(CC3CC3)c12 [Example 222, 2-(7-(((S)-1-(1H-imidazol-1-yl)propan-2-yl)oxy)-1-(cyclopropylmethyl)-1H-indol-2-yl)-6-((S)-2-amino-3-fluoropropyl)-1-methyl-1,6,7,8-tetrahydro-5H-imidazo[4,5-g]isoquinolin-5-one] |
